Test: Partition coefficient, log P of the compound
Format: physicochemical
Details: octanol/water

Row | SMILES | logP
1 | CCOC(=O)C1(C)CCC=[N+]1[O-] (configuration not stated) | 0.15
2 | CCOC(=O)C1(CC)C(C)CC=[N+]1[O-] (mixture of isomers) | 1.07
3 | CCOC(=O)C1(C)C(CC)CC=[N+]1[O-] (mixture of isomers) | 1.34

Further lines, results first:

Row | logP | SMILES
4 | 1.67 | CCOC(=O)[C@]1(C)C[C@@H](CC)C=[N+]1[O-] (relative stereo)
5 | 1.48 | CCOC(=O)[C@@]1(CC)C[C@H](C)C=[N+]1[O-] (relative stereo)
6 | 1.38 | CCOC(=O)[C@]1(C)C[C@H](CC)C=[N+]1[O-] (relative stereo)
7 | 1.34 | CCOC(=O)[C@@]1(CC)C[C@@H](C)C=[N+]1[O-] (relative stereo)

Source: ChEMBL document CHEMBL1143022, “Free radical trapping properties of several ethyl-substituted derivatives of 5-ethoxycarbonyl-5-methyl-1-pyrroline N-oxide (EMPO)” (Bioorg Med Chem, 2007)
